Measured values as given in US20260022142A1, “MACROCYCLIC IMMUNOMODULATORS” (Bristol-Myers Squibb Company, priority 2022, published 2026).
Bridge positions count the residues as written; N and C are the ends. Square brackets hold non-standard residues; d marks the D form. Peptide text beside a SMILES is read from it. * marks the point of attachment. Phe(3-CF3) = N[C@@H](Cc1cccc(C(F)(F)F)c1)C(=O)O; Phe(4-CONH2) = NC(=O)c1ccc(C[C@H](N)C(=O)O)cc1; Phe(4-COOH) = N[C@@H](Cc1ccc(C(=O)O)cc1)C(=O)O; Bip = N[C@@H](Cc1ccc(-c2ccccc2)cc1)C(=O)O; Phe(3-Me) = Cc1cccc(C[C@H](N)C(=O)O)c1; NH(CH2)12COOH = O=C(O)CCCCCCCCCCCCN*; Val(3-OH) = CC(C)(O)[C@H](N)C(=O)O; dAla(cPr) = N[C@H](CC1CC1)C(=O)O; 4Pal = N[C@@H](Cc1ccncc1)C(=O)O; Cha = N[C@@H](CC1CCCCC1)C(=O)O; Cit = NC(=O)NCCC[C@H](N)C(=O)O; dDab = NCC[C@@H](N)C(=O)O; Carboxymethyl = O=C(O)C*; Nle = CCCC[C@H](N)C(=O)O; Orn = NCCC[C@H](N)C(=O)O; Aun = NCCCCCCCCCCC(=O)O; Dab = NCC[C@H](N)C(=O)O; Dap = NC[C@H](N)C(=O)O; AEEA = NCCOCCOCC(=O)O

Target: T1, PD-1/PD-L1 interaction (PE-labeled human PD-L1-Ig binding to Jurkat cell line over-expressing human PD-1) (Homo sapiens, UniProt Q15116)
T1 construct: expressed in transfected cells; host or cells: Jurkat
Experiment: Jurkat-PD-1 Cell Binding High-Content Screening Assay (CBA)
Format: cell-based
Conditions: Jurkat cell line over-expressing human PD-1; PE-labeled PD-L1-Ig 20 nM final; read-out: Jurkat hPD1-PDL1 IC50
Outline: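 Jurkat cells stably over-expressing human PD-1 were seeded in DMEM with 10% fetal calf serum and pre-incubated with compound for 2 h at 37° C. PE-labeled human PD-L1-Ig was then added at 20 nM final for 1 hour, after which cells were fixed with paraformaldehyde, Hoechst-stained and imaged by high-content microscopy.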

T1 sequence (Q15116 25-288): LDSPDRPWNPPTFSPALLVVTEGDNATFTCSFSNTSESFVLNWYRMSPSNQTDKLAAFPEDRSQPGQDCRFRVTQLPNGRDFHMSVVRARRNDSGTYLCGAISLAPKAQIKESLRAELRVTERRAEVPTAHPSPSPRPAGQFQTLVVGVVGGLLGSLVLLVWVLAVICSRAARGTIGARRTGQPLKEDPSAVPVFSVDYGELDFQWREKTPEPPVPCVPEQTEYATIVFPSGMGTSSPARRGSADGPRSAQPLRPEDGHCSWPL

IC50 [nM]	SMILES
14.1	Cc1cccc(C[C@@H]2NC(=O)[C@H](CC(=O)O)NC(=O)[C@H](Cc3ccc(OCC(=O)O)cc3)NC(=O)[C@H](CN)NC(=O)CSC[C@@H](C(=O)NCCOCCOCC(=O)N[C@@H](CCN)C(=O)NCCCCCCCCCCC(=O)O)NC(=O)[C@H](CN)NC(=O)[C@H](C(C)C)NC(=O)[C@H](CC3CCCCC3)NC(=O)[C@H](CCN)NC(=O)[C@@H](CC(C)C)NC(=O)[C@H](CCCN)NC(=O)[C@H](CCCNC(N)=O)NC(=O)[C@H](Cc3ccc(-c4ccccc4)cc3)NC(=O)[C@H](C(C)C)NC2=O)c1 [Compound 2627] ({CH2CO}-[Dap]Y(Carboxymethyl)D[Phe(3-Me)]V[Bip][Cit][Orn][dL][Dab][Cha]V[Dap]C[AEEA][Dab][Aun]-OH; thioether N-14)
10.2	Cc1cccc(C[C@@H]2NC(=O)[C@H](CC(=O)O)NC(=O)[C@H](Cc3ccc(OCC(=O)O)cc3)NC(=O)[C@H](CN)NC(=O)CSC[C@@H](C(=O)N[C@@H](CCN)C(=O)NCCCCCCCCCCC(=O)O)NC(=O)[C@H](CCCCN)NC(=O)[C@H](C(C)C)NC(=O)[C@H](CC3CCCCC3)NC(=O)[C@H](CCN)NC(=O)[C@@H](CC3CC3)NC(=O)[C@H](CCCN)NC(=O)[C@H](C(C)C)NC(=O)[C@H](Cc3ccc(-c4ccccc4)cc3)NC(=O)[C@H](C(C)C)NC2=O)c1 [Compound 2026] ({CH2CO}-[Dap]Y(Carboxymethyl)D[Phe(3-Me)]V[Bip]V[Orn][dAla(cPr)][Dab][Cha]VKC[Dab][Aun]-OH; thioether N-14)
5	Cc1cccc(C[C@@H]2NC(=O)[C@H](CC(=O)O)NC(=O)[C@H](Cc3ccc(OCC(=O)O)cc3)NC(=O)[C@H](Cc3ccncc3)NC(=O)CSC[C@@H](C(=O)N[C@@H](CCN)C(=O)NCCCCCCCCCCC(=O)O)NC(=O)[C@H](CO)NC(=O)[C@H](C(C)(C)O)NC(=O)[C@H](CC3CCCCC3)NC(=O)[C@H](CCN)NC(=O)[C@@H](CC(C)C)NC(=O)[C@H](CCCN)NC(=O)[C@H](Cc3ccc(O)cc3)NC(=O)[C@H](Cc3ccc(-c4ccccc4)cc3)NC(=O)[C@H](Cc3ccc(C(N)=O)cc3)NC2=O)c1 [Compound 3717] ({CH2CO}-[4Pal]Y(Carboxymethyl)D[Phe(3-Me)][Phe(4-CONH2)][Bip]Y[Orn][dL][Dab][Cha][Val(3-OH)]SC[Dab][Aun]-OH; thioether N-14)
141	CCCC[C@@H]1NC(=O)CSC[C@@H](C(=O)N[C@H](CCN)C(=O)NCCOCCOCC(=O)NCCOCCOCC(=O)NCCCCCCCCCCCCC(=O)O)NC(=O)[C@H](CO)NC(=O)[C@H](C(C)(C)O)NC(=O)[C@H](CC2CCCCC2)NC(=O)[C@H](CCN)NC(=O)[C@@H](CC(C)C)NC(=O)[C@H](CCCN)NC(=O)[C@H](Cc2ccc(C(=O)O)cc2)NC(=O)[C@H](Cc2ccc(-c3ccccc3)cc2)NC(=O)[C@H](Cc2ccc(C(=O)O)cc2)NC(=O)[C@H](Cc2cccc(C(F)(F)F)c2)NC(=O)[C@H](CC(=O)O)NC(=O)[C@H](Cc2ccc(OCC(=O)O)cc2)NC1=O [Compound 3827] ({CH2CO}-[Nle]Y(Carboxymethyl)D[Phe(3-CF3)][Phe(4-COOH)][Bip][Phe(4-COOH)][Orn][dL][Dab][Cha][Val(3-OH)]SC[dDab][AEEA][AEEA]-{NH(CH2)12COOH}; thioether N-14)
31.9	Cc1cccc(C[C@@H]2NC(=O)[C@H](CC(=O)O)NC(=O)[C@H](Cc3ccc(OCC(=O)O)cc3)NC(=O)[C@H](CN)NC(=O)CSC[C@@H](C(=O)N[C@@H](CCN)C(=O)NCCOCCOCC(=O)NCCCCCCCCCCC(=O)O)NC(=O)[C@H](CO)NC(=O)[C@H](Cc3ccc(O)cc3)NC(=O)[C@H](CC3CCCCC3)NC(=O)[C@H](CCN)NC(=O)[C@@H](CC(C)C)NC(=O)[C@H](CCCN)NC(=O)[C@H](Cc3ccc(O)cc3)NC(=O)[C@H](Cc3ccc(-c4ccccc4)cc3)NC(=O)[C@H](Cc3ccc(O)cc3)NC2=O)c1 [Compound 2570] ({CH2CO}-[Dap]Y(Carboxymethyl)D[Phe(3-Me)]Y[Bip]Y[Orn][dL][Dab][Cha]YSC[Dab][AEEA][Aun]-OH; thioether N-14)
